Results reported in patent US20240215579A1, “USE OF ANTI-CLOTTING COMPOUNDS AS RODENTICIDES” (priority 2021, published 2024).

Test system: pest rodents
Experiment: Pest rodent bait compositions in standard chow: mortality
Format: in vivo, rats
Source text: The basic bait composition (standard chow) used consisted of 65% maize, 25% oat flakes, […], 3% refined finely granulated sugar, and 1% fine table salt.
The Pgp inhibitors were used at the following listed concentration.

C[C@@H](c1ncncc1F)[C@](O)(Cn1cncn1)c1ccc(F)cc1F [voriconazole]
Mortality in words, Pgp inhibitor combined with active clotting inhibitors (bait, combination with different active clotting inhibitors): high mortality
Efficacy as Pgp inhibitor in the context of the invention (compared to other Pgp inhibiting substances): highly effective
